In brackets after ≈: the same amount, converted by molar mass. Read-outs that look alike come from different tables or passages of the source.
What was measured:
[1] = test system: A. baumannii KW1 strains with tet resistance gene plasmids; assay: Etest MIC of tetracyclines, tet resistance gene (Table 20); type: cell-based, Acinetobacter baumannii; conditions: for MIC: Acinetobacter baumannii
Experimental: DNA fragments of the resistance genes along with their flanking regions were amplified from clinical plasmids via PCR with specific primer pairs. The resulting PCR fragments were digested and then cloned into the plasmid pYMAb5 or pYMAb5Tc. The resulting plasmids were then transformed into A. baumannii KW1 via electroporation.
(§1) The MICs of antibiotics were determined using the Etest (Biodisk AB, Sweden) according to the manufacturer's instructions. The MICs from the Etest, which fall between standard two-fold dilutions, were rounded up to the next highest two-fold value. The MICs of ceftazidime and cefotaxime against K. pneumoniae NVT1001 harbouring the pACYC177 plasmid with blaOXA-48 were further determined using a broth microdilution test according to the recommendations of the CLSI,^25 and the results were interpreted according to the breakpoints established by the CLSI in 2017.^25 Meanwhile, due to the lack of CLSI breakpoints in 2016 and 2017, the results for cephalothin were interpreted according to the breakpoints established by the CLSI in 2015,^26 and the results for moxifloxacin were interpreted according to the breakpoints established by the EUCAST in 2017.^27

[2] = test system: K. pneumoniae NVT1001 and ΔramR strains with tet resistance gene plasmids; assay: Etest MIC of tetracyclines, AcrAB-TolC overexpression (ΔramR) and/or tet resistance gene (Table 14); type: cell-based, Klebsiella pneumoniae; conditions: for MIC: Klebsiella pneumoniae
Experimental: DNA fragments of the resistance genes along with their flanking regions were amplified from clinical plasmids via PCR with specific primer pairs. The resulting PCR fragments were digested and then cloned into the plasmid pACYC177 or pACYC184. The resulting plasmids were then transformed into K. pneumoniae strain NVT1001 via electroporation. The recombinant bacteria were plated onto LB agar plates containing kanamycin (50 mg/L) or chloramphenicol (50 mg/L), and the presence of the cloned gene was confirmed via PCR and DNA sequencing.
as §1

[3] = test system: K. pneumoniae NVT1001 ΔramRΔompK35/36 mutant and its revertants; assay: Etest MIC, ΔramRΔompK35/36 mutant and its revertants (Table 7); type: cell-based; conditions: Klebsiella pneumoniae
[4] = test system: K. pneumoniae NVT1001 and its ΔompK35/36 and/or ΔramR mutants; assay: Etest MIC, OmpK35/36 loss and AcrAB-TolC overexpression (ΔramR) strains (Table 6); type: cell-based, Klebsiella pneumoniae; conditions: Klebsiella pneumoniae
Outline: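 Etest strips per kit instructions; off-scale intermediate readings rounded upward to the nearest two-fold concentration. Broth microdilution (CLSI) for ceftazidime, cefotaxime only. Breakpoints: CLSI 2017 generally, CLSI 2015 for cephalothin, EUCAST 2017 for moxifloxacin.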

[5] = test system: A. baumannii KW1 and its AdeR/AdeS mutants; assay: Etest MIC, AdeABC overexpression via AdeR or AdeS mutation (Table 16); type: cell-based, Acinetobacter baumannii; conditions: Acinetobacter baumannii
Source text: DNA fragments of the entire adeR, adeS, gyrA and parC along with their flanking regions were amplified from A. baumannii KW1 using PCR with specific primer pairs and then cloned into plasmid pUT-KB. The QuikChange site-directed mutagenesis kit (Stratagene) was used to generate mutations in the adeR, adeS, gyrA and parC genes in the plasmids using the methods described by the manufacturer. For homologous recombination, plasmids containing mutations in the adeR, adeS, gyrA or parC gene were transformed into E. coli S17-1 λpir^23 via electroporation and mobilized into A. baumannii KW1 via conjugation. Single-crossover strains were selected from Luria-Bertani (LB) plates supplemented with cefotaxime (1 μg/ml) and kanamycin ([…]), as the growth of non-A. baumannii contaminants is suppressed by cefotaxime (1 μg/ml). The kanamycin-resistant transconjugants were selected and the insertion of plasmids was verified via PCR. After incubation in 20 ml brain heart infusion (BHI) broth for 6 hours in the absence of kanamycin at 37° C., the fully grown cultures were spread onto LB plates supplemented with 10% sucrose. After the double crossover occurred, the sucrose-resistant and kanamycin-susceptible colonies were selected, and the gene mutations were confirmed via PCR.
as §1

For CN(C)c1cc(NC(=O)CNC(C)(C)C)c(O)c2c1C[C@H]1C[C@H]3[C@H](N(C)C)C(O)=C(C(N)=O)C(=O)[C@@]3(O)C(O)=C1C2=O [Tigecycline, tigecycline], the MIC ([1]; KW1, Tet(A) on pYMAb5) was 1 µg/mL, the MIC ([1]; KW1, Tet(B) on pYMAb5) was 0.38 µg/mL and the MIC ([1]; KW1, Tet(M) on pYMAb5) was 0.38 µg/mL. The MIC ([1]; KW1, no supplemental plasmid) was 0.38 µg/mL, the MIC ([1]; KW1 with shuttle vector pYMAb5) was 0.38 µg/mL and the “effects on the MIC” value ([1]; production of Tet(B) or Tet(M)) was “no observable effects”. For the same compound, the MIC ([2]; NVT1001, Tet(A) on pACYC177, read-out: MIC) was 8 µg/mL, the MIC ([2]; NVT1001, Tet(B) on pACYC177, read-out: MIC) was 1 µg/mL and the MIC ([2]; NVT1001, Tet(C) on pACYC177, read-out: MIC) was 1 µg/mL. For the same compound, the MIC ([2]; NVT1001, Tet(D) on pACYC177, read-out: MIC) was 1 µg/mL, the MIC ([2]; NVT1001, Tet(M) on pACYC177, read-out: MIC) was 1 µg/mL and the MIC ([2]; NVT1001, no supplemental plasmid, read-out: MIC) was 1 µg/mL. For the same compound, the MIC ([2]; ΔramR, Tet(A) on pACYC177) was 32 µg/mL, the MIC ([2]; ΔramR, Tet(B) on pACYC177) was 8 µg/mL and the MIC ([2]; ΔramR, Tet(C) on pACYC177) was 8 µg/mL. The MIC ([2]; ΔramR, Tet(D) on pACYC177) was 8 µg/mL, the MIC ([2]; ΔramR, Tet(M) on pACYC177) was 8 µg/mL and the MIC ([2]; ΔramR, no supplemental plasmid) was 8 µg/mL. The “increase in the MIC” value ([2]; Tet(A) production) was 8 fold, the “effects on the MIC” value ([2]; production of Tet(B), Tet(C), Tet(D) or Tet(M), with or without ΔramR) was “no observable effects” and the “increase in the MIC” value ([2]; {}) was 8 fold. The MIC ([3]; ΔramRΔompK35/36::ompK35/36 revertant) was 8 µg/mL, the MIC ([3]; ΔramRΔompK35/36::ompK35 revertant) was 8 µg/mL and the MIC ([3]; ΔramRΔompK35/36::ompK36 revertant) was 8 µg/mL. For the same compound, the MIC ([3]; ΔramRΔompK35/36::ramR revertant) was 1 µg/mL, the MIC ([3]; ΔramRΔompK35/36::ramR::ompK35/36 revertant) was 1 µg/mL and the MIC ([3]; ΔramRΔompK35/36::ramR::ompK35 revertant) was 1 µg/mL. For the same compound, the MIC ([3]; ΔramRΔompK35/36::ramR::ompK36 revertant) was 1 µg/mL, the MIC ([3]; ΔramRΔompK35/36 mutant) was 8 µg/mL and the MIC ([4]; WT, NVT1001, read-out: MIC) was 1 µg/mL (≈ 1.71 µM). It also gave an MIC ([4]; Δ35, ΔompK35 mutant) of 1 µg/mL (≈ 1.71 µM), an MIC ([4]; Δ35/36, ΔompK35/36 mutant) of 1 µg/mL (≈ 1.71 µM) and an MIC ([4]; Δ36, ΔompK36 mutant) of 1 µg/mL (≈ 1.71 µM). For the same compound, the MIC ([4]; ΔramR mutant) was 8 µg/mL (≈ 13.7 µM), the MIC ([4]; ΔramRΔ35, ΔramRΔompK35 mutant) was 8 µg/mL (≈ 13.7 µM) and the MIC ([4]; ΔramRΔ35/36, ΔramRΔompK35/36 mutant) was 8 µg/mL (≈ 13.7 µM). It also gave an MIC ([4]; ΔramRΔ36, ΔramRΔompK36 mutant) of 8 µg/mL (≈ 13.7 µM), an MIC ([5]; A91V mutant (AdeR)) of 3 µg/mL and an MIC ([5]; A94V mutant (AdeS)) of 2 µg/mL. The MIC ([5]; D20N mutant (AdeR)) was 2 µg/mL, the MIC ([5]; G30D mutant (AdeS)) was 3 µg/mL and the MIC ([5]; KW1, read-out: MIC) was 0.25 µg/mL. It also gave an MIC ([5]; P116L mutant (AdeR)) of 1.5 µg/mL, an MIC ([5]; R152K mutant (AdeS)) of 2 µg/mL and an MIC ([5]; T153M mutant (AdeS)) of 3 µg/mL.
